Results taken from the supplement of paper PMC10307832.

Columns and labels:
Assay in all cases: relative viability (nuclei count vs DMSO), 5 days (fraction); higher = more cells survive
Venetoclax + Navitoclax = compound: CC1(C)CCC(CN2CCN(c3ccc(C(=O)NS(=O)(=O)c4ccc(NCC5CCOCC5)c([N+](=O)[O-])c4)c(Oc4cnc5[nH]ccc5c4)c3)CC2)=C(c2ccc(Cl)cc2)C1 [Venetoclax] + CC1(C)CCC(c2ccc(Cl)cc2)=C(CN2CCN(c3ccc(C(=O)NS(=O)(=O)c4ccc(N[C@H](CCN5CCOCC5)CSc5ccccc5)c(S(=O)(=O)C(F)(F)F)c4)cc3)CC2)C1 [Navitoclax] (partner 0.5 µM)
Method in brief: (§1)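 For relative viability, nuclei counts in treated wells were divided by those in vehicle wells. Lung cancer cell lines had been pin-tool dosed in 1536-well plates the day after seeding and cultured for 5 days, then fixed and stained in one step (final 0.05% Triton X-100, 1% formaldehyde, 1 ug/ml Hoechst) and imaged at 4×. Doses were one drug alone or a fixed anchor-drug dose plus five library-drug doses (not always all listed) in √10 steps, and values are duplicate-plate medians.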

Selumetinib + Phenformin = compound: Cn1cnc2c(F)c(Nc3ccc(Br)cc3Cl)c(C(=O)NOCCO)cc21 [Selumetinib] + N=C(N)NC(=N)NCCc1ccccc1 [Phenformin] (partner 250 µM)
Method in brief: as §1

Venetoclax = compound: CC1(C)CCC(CN2CCN(c3ccc(C(=O)NS(=O)(=O)c4ccc(NCC5CCOCC5)c([N+](=O)[O-])c4)c(Oc4cnc5[nH]ccc5c4)c3)CC2)=C(c2ccc(Cl)cc2)C1 [Venetoclax]
Method in brief: (§2)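 In 1536-well plates, lung cancer cell lines rested overnight at 37 °C before five library-drug doses (not always all listed), √10 apart, were pinned onto vehicle-anchored plates. Nuclei were counted with MetaXpress from 4× Hoechst images taken after 5 days without medium change. Viability compares treated-well with vehicle-well nuclei as a median over plates, and plates needed control CV below 25% plus at least one doubling to pass.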

Selumetinib = compound: Cn1cnc2c(F)c(Nc3ccc(Br)cc3Cl)c(C(=O)NOCCO)cc21 [Selumetinib]
Method in brief: as §2

Cell Line | relative viability (Venetoclax + Navitoclax; first compound 0.01 µM) | relative viability (Venetoclax + Navitoclax; first compound 0.03162 µM) | relative viability (Venetoclax + Navitoclax; first compound 0.1 µM) | relative viability (Venetoclax + Navitoclax; first compound 0.3162 µM) | relative viability (Venetoclax + Navitoclax; first compound 1 µM) | relative viability (Selumetinib + Phenformin; first compound 0.02 µM) | relative viability (Selumetinib + Phenformin; first compound 0.06325 µM) | relative viability (Selumetinib + Phenformin; first compound 0.2 µM) | relative viability (Selumetinib + Phenformin; first compound 0.6325 µM) | relative viability (Venetoclax; 0.01 µM) | relative viability (Venetoclax; 0.03162 µM) | relative viability (Venetoclax; 0.1 µM) | relative viability (Venetoclax; 0.3162 µM) | relative viability (Venetoclax; 1 µM) | relative viability (Selumetinib; 0.02 µM) | relative viability (Selumetinib; 0.06325 µM) | relative viability (Selumetinib; 0.2 µM) | relative viability (Selumetinib; 0.6325 µM)
HCC-827 | 1.02 | 0.996 | 1.04 | 1.04 | 1.01 | 0.4 | 0.4 | 0.42 | 0.409 | 1.03 | 1.07 | 0.924 | 1.02 | 1.04 | 1.03 | 1.06 | 0.994 | 0.941
LXF-289 | 0.926 | 0.988 | 0.952 | 0.868 | 0.829 | 0.52 | 0.501 | 0.442 | 0.434 | 1.17 | 1.02 | 0.944 | 0.956 | 0.883 | 0.948 | 0.932 | 0.835 | 0.778
LC-2-ad | 0.441 | 0.4 | 0.531 | 0.52 | 0.466 | 0.557 | 0.544 | 0.532 | 0.575 | 0.942 | 1.01 | 0.978 | 1 | 0.964 | 0.948 | 0.896 | 0.885 | 0.899
NCI-H441 | 0.659 | 1.09 | 0.627 | 0.482 | 0.47 | 0.886 | 0.674 | 0.667 | 0.468 | 0.952 | 1.08 | 0.97 | 0.974 | 0.865 | 1.18 | 0.922 | 0.827 | 0.649
HOP-62 | 0.988 | 1.17 | 1.09 | 1.13 | 1 | 0.753 | 0.657 | 0.624 | 0.465 | 1 | 1.05 | 0.989 | 0.973 | 0.927 | 1.02 | 0.897 | 0.886 | 0.549
NCI-H2009 | 1.14 | 1.14 | 1.13 | 1.15 | 1.05 | 0.428 | 0.359 | 0.29 | 0.217 | 1.05 | 1.01 | 0.991 | 0.974 | 0.882 | 0.925 | 0.639 | 0.574 | 0.385
NCI-H1755 | 1.01 | 0.988 | 0.96 | 0.999 | 0.925 | 0.628 | 0.594 | 0.584 | 0.53 | 0.996 | 1.04 | 0.977 | 0.995 | 0.967 | 0.952 | 0.963 | 0.916 | 0.922
NCI-H520 | 1.14 | 1.27 | 1.06 | 1.2 | 0.962 | 0.616 | 0.659 | 0.671 | 0.784 | 0.923 | 0.994 | 0.828 | 0.971 | 1 | 1.12 | 0.981 | 1.08 | 1.04
LOU-NH91 | 0.594 | 0.832 | 0.676 | 0.77 | 0.659 | 0.674 | 0.69 | 0.688 | 0.661 | 0.969 | 1.09 | 0.942 | 0.954 | 0.925 | 0.935 | 0.884 | 0.899 | 0.901
LU99A | 0.783 | 0.936 | 0.708 | 0.833 | 0.741 | 0.905 | 0.799 | 0.85 | 0.835 | 1.02 | 1.01 | 0.84 | 0.987 | 0.994 | 1.01 | 1.05 | 0.91 | 0.912
PC-14 | 0.986 | 1.03 | 0.936 | 0.954 | 0.926 | 0.516 | 0.507 | 0.529 | 0.447 | 1 | 1.08 | 1.03 | 0.989 | 0.818 | 0.931 | 0.932 | 0.935 | 0.844
NCI-H2126 | 0.886 | 0.853 | 0.851 | 0.808 | 0.855 | 0.526 | 0.453 | 0.466 | 0.434 | 1 | 1.07 | 0.992 | 0.996 | 0.953 | 0.932 | 0.883 | 0.857 | 0.77
